# Earlier results in publication PMC10576142, “Intrinsic structural dynamics dictate enzymatic activity and inhibition” (Proceedings of the National Academy of Sciences of the …, 2023).
# Test system: HDAC8
# Set-up: method as in PMID 24079912
smiles,measurement,value
"CC(/C=C/C(=O)NO)=C\[C@@H](C)C(=O)c1ccc(N(C)C)cc1 [TCSA, trichostatin A]",overall off-rate,0.1 s⁻¹
